Article PMC5124248, “Antitumor activity of TY-011 against gastric cancer by inhibiting Aurora A, Aurora B and VEGFR2 kinases” (Journal of Experimental & Clinical Cancer Research : CR, 2016)
Several values for one entry are separate records, joined by “and”; a condition that tells them apart may be missing. Identical values can stand only once. Entries after “also recorded” stand apart in the source; their conditions may differ. Marks after values point to notes of the source that are not given here.

Assays:
human MGC-803 xenograft = assay: Antitumor activity in vivo, MGC-803 xenograft in nude mice; design: species or system BALB/c nu/nu mice; conditions: for Inhibition rate (%): by tumor weight; for Body weight (g) End / Body weight (g) Start / Tumor volume (mm^3) End / Tumor volume (mm^3) Start / Tumor weight: mean ± SEM; for Tumor weight: control 0.79 g
Experimental: The animals were housed in specific pathogen-free (SPF) conditions at Key Laboratory of Brain Functional Genomics, Ministry of Education, and were acclimatized for a week prior to use. […] When the tumors reached a mean group size of 100 ~ 150 mm^3, the mice were randomized into control and treatment groups to receive treatment accordingly. […] The tumor growth was recorded with the measurement of length (L) and width (W) by caliper every other day, and calculated as tumor volume (V) = L × W^2/2. Meanwhile, the body weights of mice were recorded. The tumor volume at day n was expressed as relative tumor volume (RTV) according to the following formula: RTV% = (TVn/TV0) ×100%, where TVn is the tumor volume at day n and TV0 is the tumor volume at day 0. The therapeutic effect of treatment was calculated with formula T/C (%) = mean RTV of the treated group/mean RTV of the control group × 100%. […] The tumor regression of individual mouse was defined as the tumor volume at the end was less than the tumor volume when treatment was initiated.

[1] = test system: MGC-803 xenograft tumor tissues; assay: TUNEL staining of xenograft tumor tissues; assay type: in vivo, BALB/c nu/nu mice; conditions: 9 mg/kg
Excerpt: Female BALB/c nu/nu mice (5–6 weeks, 16–18 g) were obtained from Sino-British SIPPR/BK Lab. Animal Ltd, Shanghai, China, with the certification number of 2008001638201. The animals were housed in specific pathogen-free (SPF) conditions at Key Laboratory of Brain Functional Genomics, Ministry of Education, and were acclimatized for a week prior to use. Human MGC-803 xenografts were established by subcutaneously inoculating 5 × 10^6 cells into nude mice. When the tumors reached a mean group size of 100 ~ 150 mm^3, the mice were randomized into control and treatment groups to receive treatment accordingly. TY-011 was orally administered at 3, 6 and 9 mg/kg once a day for 13 days. […] The tumor growth was recorded with the measurement of length (L) and width (W) by caliper every other day, and calculated as tumor volume (V) = L × W^2/2. Meanwhile, the body weights of mice were recorded. The tumor volume at day n was expressed as relative tumor volume (RTV) according to the following formula: RTV% = (TVn/TV0) ×100%, where TVn is the tumor volume at day n and TV0 is the tumor volume at day 0. The therapeutic effect of treatment was calculated with formula T/C (%) = mean RTV of the treated group/mean RTV of the control group × 100%. […] The tumor regression of individual mouse was defined as the tumor volume at the end was less than the tumor volume when treatment was initiated. […]

SGC-7901 cells = assay: Cell cycle analysis by flow cytometry, SGC-7901; assay type: cell-based, human
Experimental: Cell cycle distribution was determined by flow cytometry measurement of DNA content after cells were incubated with RNase A (50 μg/ml) and propidium iodide (50 μg/ml). The cellular DNA content was measured on a flow cytometer (Guava EasyCyte 6HT-2 L, Merck Millipore, Billerica, MA, USA). The percentage of each population was analyzed using the InCyte software. At least 20 000 cells were analyzed for each data point.

p-Aurora A (T288) = assay: Cellular Aurora A phosphorylation (western blot, immunofluorescence) in MGC-803 cells; assay type: cell-based, human
Experimental: The proteins of whole cell lysates were prepared in RIPA buffer containing protease and phosphatase inhibitors (Thermo Fisher Scientific, Waltham, MA, USA), and quantified by the bicinchoninic acid (BCA) method. Immunoblotting analysis of proteins in cell lysates was performed as previously described. Primary antibodies used were as follows: anti-Aurora A (#12100), anti-p-Aurora A (Thr288) (#3079), anti-Histone H3 (#4499), and anti-p-Histone H3 (Ser10) (#9701), and anti-cleaved caspase 3 (#9661) were purchased from Cell Signaling Technology (Danvers, MA, USA); anti-PARP-1 (#sc-8007) and anti-GAPDH (#sc-25778) were purchased from Santa Cruz (CA, USA).
Cells were cultured on glass slides coated with 0.05 mg/ml PDL (Sigma-aldrich, St. Louis, MO, USA) in the presence of TY-011 (0.8 μM) or equivalent amount of DMSO for 24 h. The cells were fixed in 4% paraformaldehyde at room temperature, then permeabilized with 0.15% Triton-X100 and blocked in 3% BSA in PBS. The primary antibodies were incubated with slides at 1:100 dilution in PBS containing 3% BSA in a wet chamber at 4 °C overnight. […] The images were captured with FCFM (fluorescence confocal microscope) (Olympus FV1000 IX81, Tokyo, Japan) under appropriate excitation and emission filters or phase-contrast microscope (Olympus IX73, Tokyo, Japan). […]

[2] = 3 mg/kg oral once a day for 13 days
[3] = 6 mg/kg oral once a day for 13 days
[4] = 9 mg/kg oral once a day for 13 days

CCc1cc2c(cn1)C(c1ccccc1Cl)=Nc1c(n[nH]c1C)N2 [TY-011, 9-(2-chloro-phenyl)-6-ephyl-1-methyl-2,4-dihydro-2,3,4,7,10-pentaaza-benzo[f]azulene]
T/C (%) (human MGC-803 xenograft; [2]): 54.55%
TGI (%) (human MGC-803 xenograft; [2]): 59.41%
Inhibition rate (%) (human MGC-803 xenograft; [2]): 64.9%
Body weight (g) End (human MGC-803 xenograft; [2]): 21.8 ± 0.1 g
Body weight (g) Start (human MGC-803 xenograft; [2]): 20.8 ± 0.1 g
Tumor volume (mm^3) End (human MGC-803 xenograft; [2]): 433.6 ± 16.2*** mm^3
Tumor volume (mm^3) Start (human MGC-803 xenograft; [2]): 192.8 ± 7.1 mm^3
Tumor weight (human MGC-803 xenograft; [2]): 0.28 g and 0.28 ± 0.02 g
T/C (%) (human MGC-803 xenograft; [3]): 21.82%
TGI (%) (human MGC-803 xenograft; [3]): 103.77%
tumor regression (share of mice) (human MGC-803 xenograft; 6 mg/kg oral once a day for 13 days, 6/8 mice): 75%
Inhibition rate (%) (human MGC-803 xenograft; [3]): 87.7%
Body weight (g) End (human MGC-803 xenograft; [3]): 20.3 ± 0.2 g
Body weight (g) Start (human MGC-803 xenograft; [3]): 20.9 ± 0.1 g
Tumor volume (mm^3) End (human MGC-803 xenograft; [3]): 168.8 ± 7.1*** mm^3
Tumor volume (mm^3) Start (human MGC-803 xenograft; [3]): 191.2 ± 6.2 mm^3
Tumor weight (human MGC-803 xenograft; [3]): 0.10 g and 0.10 ± 0.01 g
T/C (%) (human MGC-803 xenograft; [4]): 14.53%
TGI (%) (human MGC-803 xenograft; [4]): 113.09%
tumor regression (share of mice) (human MGC-803 xenograft; 9 mg/kg oral once a day for 13 days, 8/8 mice): 100%
Inhibition rate (%) (human MGC-803 xenograft; [4]): 89.0%
Body weight (g) End (human MGC-803 xenograft; [4]): 21.7 ± 0.1 g
Body weight (g) Start (human MGC-803 xenograft; [4]): 21.4 ± 0.1 g
Tumor volume (mm^3) End (human MGC-803 xenograft; [4]): 111.4 ± 3.6*** mm^3
Tumor volume (mm^3) Start (human MGC-803 xenograft; [4]): 189.0 ± 4.9 mm^3
Tumor weight (human MGC-803 xenograft; [4]): 0.09 g and 0.09 ± 0.01 g
drug-related deaths and body weight of mice (human MGC-803 xenograft; 3, 6 and 9 mg/kg oral once a day for 13 days): did not affect the body weight of mice; also recorded: did not cause drug-related deaths or any loss in body weight of mice
damages to vital organs (heart, liver, spleen, lung and kidney) or clinical signs (human MGC-803 xenograft; mice treated with TY-011, data not shown): no obvious damages to vital organs
apoptosis in tumor tissues (TUNEL) [1]: obvious increase in apoptosis
G2/M phase cells (SGC-7901 cells; SGC-7901, 0.5 μM, 12 h (from 31.6%)): 45.1%
cells with >4 N DNA content (SGC-7901 cells; SGC-7901, 0.5 μM, 48 h): 13.9%
proportion of cells with >4 N DNA content (SGC-7901 cells; SGC-7901, 1 μM, 24 h (6.7% no treatment)): 14.7%
proportion of G2/M phase cells (SGC-7901 cells; SGC-7901, 1 μM, 24 h (34.0% no treatment)): 78.6%
Aurora A green foci in mitotic cells, immunofluorescence (p-Aurora A (T288); MGC-803, 0.8 μM, 24 h): became weaker or even disappeared
p-Aurora A (T288), western blot (p-Aurora A (T288); MGC-803 synchronized with nocodazole (100 nM) 16 h, then various concentrations for 24 h): decreased in a concentration-dependent manner
